# How the values were obtained:
# [1] = system: wheat (Triticum aestivum, variety "TRISO"); test: Root growth assay, seed treatment, wheat; format: in vivo; conditions: Root Growth of 100 set as standard (untreated control), wet root weight 16 (±2) days post treatment
# Description: (§1) Plant roots are a highly proliferative tissue which allows to be seen as a reliable target organ in order to screen for plant growth regulators. The results obtained are regarded as an indication for the overall effects on a plant of plant growth regulators identified by such a system. By using this root assay one is enabled to determine the effect of a seed treatment to root growth and/or germination and/or changes in habitat of germinated plants in order to identify the possible use as a yield enhancer. Two seeds of wheat (Triticum aestivum, variety “TRISO”) or 1 seed of maize (Zea mays, variety “LORENZO”) per hole in a plastic tray which contains an architecture of 8×13 holes were placed on compost soil covered with sand. These seeds were treated with 100 μl/hole, which creates an application volume of approx. 1200 l/ha, of a compound solution at active ingredient rates equivalent to 100, 10 and 1 g a.i./ha of each compound using an robotic application system (Lizzy Spray Robotics). Six replicates in a row of each compound and concentration were done. The outer rim of the above defined plastic tray was untreated to avoid false negative effects and the middle row (No. 7) was used as untreated control. The treated seeds were allowed to dry for approx. 4 hours and subsequently covered with sand and watered. The trays were stored in climate chambers with 14 hours lighting at a temperature of 24° C. (±2) at daytime and 16° C. (±2) at night and relative humidity (rH) of 60% and daily watered. Assessments were done 16 (±2) days post treatment by counting the germinated plants and assessing the phytotoxicity symptoms and percentage. In addition, the roots were washed out and the shoots were cut directly above the seed and the wet roots were placed on dry paper towels for approximately 30 minutes and weighted afterwards. This procedure provides a similar grade of moisture to the roots so that a comparison of the weights is possible.
# (§2) The effects observed concerning Root Growth given in column 2 (Root Growth of “100” is set as the standard) are directed to concentrations that are equivalent to 100, 10, 1 g a.i./ha, each.
# [2] = system: maize (Zea mays, variety "LORENZO"); test: Root growth assay, seed treatment, maize; format: in vivo; conditions: Root Growth of 100 set as standard (untreated control), wet root weight 16 (±2) days post treatment
# Description: as §1, §2
SMILES,Root Growth ([1]; 1 g a.i./ha),Root Growth ([1]; 10 g a.i./ha),Root Growth ([1]; 100 g a.i./ha),Root Growth ([2]; 1 g a.i./ha),Root Growth ([2]; 10 g a.i./ha),Root Growth ([2]; 100 g a.i./ha)
O=C1Nc2ccc(I)cc2C1=NNc1ncc(C(F)(F)F)cc1Cl [Compound 1.1],209,93,170,,,
O=C1Nc2ccc(Br)cc2C1=NNc1c(F)c(F)cc(F)c1F [Compound 1.2],198,228,274,69,116,567
O=C1Nc2ccc(Br)cc2C1=NNc1ccc(Cl)cc1 [Compound 1.4],,,,105,125,99
O=C1Nc2ccc(Br)cc2C1=NNc1cc(Cl)cc(Cl)c1 [Compound 1.5],149,117,161,,,
Cc1ccc(NN=C2C(=O)Nc3ccc(Br)cc32)cc1 [Compound 1.6],,,,149,140,137
O=C1Nc2ccc([N+](=O)[O-])cc2C1=NNc1ncc(C(F)(F)F)cc1Cl [Compound 1.8],,,,174,100,48
O=C1Nc2ccc(Cl)cc2C1=NNc1cccc([N+](=O)[O-])c1 [Compound 1.10],,,,126,107,102
Cc1ccc(NN=C2C(=O)Nc3ccc([N+](=O)[O-])cc32)cc1Cl [Compound 1.12],,,,148,88,114
O=C1Nc2ccc(F)cc2C1=NNc1c(F)c(F)cc(F)c1F [Compound 1.18],,,,150,85,170
"NS(=O)(=O)c1ccc(NN=C2C(=O)Nc3ccc(F)cc32)cc1 [Compound 1.23, 4-[2-(5-Fluoro-2-oxo-1,2-dihydro-3H-indol-3-ylidene)-hydrazino]-benzenesulfonamide]",135,61,65,,,
"O=C1Nc2ccc(I)cc2/C1=C1/Nc2ccccc2/C1=N\O [Compound 2.1, 5-Iodoindirubin-3′-oxime]",135,151,122,,,
"CCON=C1C(=C2C(=O)Nc3ccc(Br)cc32)Nc2ccccc21 [Compound 2.4, 5-Bromoindirubin-3′-ethyloxime]",184,115,62,,,
O=C1Nc2ccc(F)cc2C1=C1Nc2ccccc2C1=NO [Compound 2.7],182,390,172,174,159,118
